The record followed here is patent US10934310B2, “Inhibitors of Bruton's tyrosine kinase and method of their use” (JANSSEN PHARMACEUTICA NV, priority 2015, dated 2021).

The structures appear in SMILES notation.

Chain of unphosphorylated-BTK kinase domain (UP-BTK), GST-tagged human BTK (389-659aa) (Q06187 389-659): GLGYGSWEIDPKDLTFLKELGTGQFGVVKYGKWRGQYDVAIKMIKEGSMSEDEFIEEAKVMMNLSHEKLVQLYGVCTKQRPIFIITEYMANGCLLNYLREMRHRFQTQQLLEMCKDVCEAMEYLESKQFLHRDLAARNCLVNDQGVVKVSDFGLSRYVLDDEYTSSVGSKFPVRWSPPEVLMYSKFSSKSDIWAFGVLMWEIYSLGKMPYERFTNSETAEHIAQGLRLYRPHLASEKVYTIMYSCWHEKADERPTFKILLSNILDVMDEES

The experiment deals with unphosphorylated-BTK kinase domain (UP-BTK), GST-tagged human BTK (389-659aa) (Homo sapiens (Human), UniProt Q06187). Nature of the experiment: BTK Kinase Lanthascreen Binding Assay. Conditions: compound, 50 nM Tracer 236, 2 nM anti-GST antibody, 60 minutes; pIC50 = negative log of the IC50 in molar. As for the experimental part: BTK Kinase Lanthascreen Binding Assay:
A BTK kinase lanthascreen binding assay monitors compound binding to unphosphorylated-BTK kinase domain (UP-BTK), by competing with a fluorescent labeled tracer. […] Data were analyzed using Xlfit™ version 5.3 from ID Business Solutions (Guildford), Microsoft Excel add-in. pIC50 refers to the negative log of the IC50 in molar.
Take `Cc1cc(Oc2ccccc2)ccc1N1C(=O)Nc2c(C(=O)N[C@@H]3CCC[C@@H]3O)sc3nccc1c23` (single isomer, unassigned) [Example 8, N-((1R,2S)-2-Hydroxycyclopentyl)-5-(*S)-(2-methyl-4-phenoxyphenyl)-4-oxo-4,5-dihydro-3H-1-thia-3,5,8-triazaacenaphthylene-2-carboxamide]: the “BTK_I_binding pIC50” value was found to be 7.95. On to `C=CC(=O)N[C@H]1CCC[C@@H]1NC(=O)c1sc2nccc3c2c1NC(=O)N3c1ccc(Oc2ccccc2)cc1C` (single isomer, unassigned) [Example 56, N-((1S,2S)-2-Acrylamidocyclopentyl)-5-(*R)-(2-methyl-4-phenoxyphenyl)-4-oxo-4,5-dihydro-3H-1-thia-3,5,8-triazaacenaphthylene-2-carboxamide], for which the “BTK_I_binding pIC50” value was determined as 5.77. As for `Cc1cc(Oc2ccccc2)ccc1N1C(=O)Nc2c(C(=O)N[C@@H]3CCC[C@H]3O)sc3nccc1c23` (single isomer, unassigned) [Example 61, N-((1R,2R)-2-Hydroxycyclopentyl)-5-(*R)-(2-methyl-4-phenoxyphenyl)-4-oxo-4,5-dihydro-3H-1-thia-3,5,8-triazaacenaphthylene-2-carboxamide], the “BTK_I_binding pIC50” value came to 5.36. With `CC(=O)N[C@@H]1CCC[C@H]1NC(=O)c1sc2nccc3c2c1NC(=O)N3c1ccc(Oc2ccccc2)cc1C` (single isomer, unassigned) [Example 67, N-((1R,2R)-2-Acetamidocyclopentyl)-5-(*S)-(2-methyl-4-phenoxyphenyl)-4-oxo-4,5-dihydro-3H-1-thia-3,5,8-triazaacenaphthylene-2-carboxamide], the “BTK_I_binding pIC50” value was determined as 7.41. On to `Cc1cc(Oc2ccccc2)ccc1N1C(=O)Nc2c(C(=O)N[C@H]3CC[C@@H](O)CC3)sc3nccc1c23` (single isomer, unassigned) [Example 83, N-((1S,4S)-4-Hydroxycyclohexyl)-5-(*S)-(2-methyl-4-phenoxyphenyl)-4-oxo-4,5-dihydro-3H-1-thia-3,5,8-triazaacenaphthylene-2-carboxamide], for which the “BTK_I_binding pIC50” value is reported as 7.60. Take `Cc1cc(Oc2ccccc2)ccc1N1C(=O)Nc2c(C(=O)N[C@H]3CC[C@@H](O)CC3)sc3nccc1c23` (single isomer, unassigned) [Example 84, N-((1S,4S)-4-Hydroxycyclohexyl)-5-(*R)-(2-methyl-4-phenoxyphenyl)-4-oxo-4,5-dihydro-3H-1-thia-3,5,8-triazaacenaphthylene-2-carboxamide]: the “BTK_I_binding pIC50” value was found to be 6.21.

Consider `Cc1cc(Oc2ccccc2)ccc1N1C(=O)Nc2c(C(=O)N[C@H]3CC[C@H](O)CC3)sc3nccc1c23` (single isomer, unassigned) [Example 85, N-((1R,4R)-4-Hydroxycyclohexyl)-5-(*S)-(2-methyl-4-phenoxyphenyl)-4-oxo-4,5-dihydro-3H-1-thia-3,5,8-triazaacenaphthylene-2-carboxamide], for which the “BTK_I_binding pIC50” value was 7.67. On to `CCC(=O)N[C@@H]1CC[C@H](NC(=O)c2sc3nccc4c3c2NC(=O)N4c2ccc(Oc3ccccc3)cc2C)C1` (single isomer, unassigned) [Example 87, 5-(*S)-(2-Methyl-4-phenoxyphenyl)-4-oxo-N-((1S,3R)-3-propionamidocyclopentyl)-4,5-dihydro-3H-1-thia-3,5,8-triazaacenaphthylene-2-carboxamide], for which the “BTK_I_binding pIC50” value is reported as 7.87. On to `CCC(=O)N[C@H]1CC[C@@H](NC(=O)c2sc3nccc4c3c2NC(=O)N4c2ccc(Oc3ccccc3)cc2C)CC1` (single isomer, unassigned) [Example 92, 5-(*S)-(2-Methyl-4-phenoxyphenyl)-4-oxo-N-((1S,4S)-4-propionamidocyclohexyl)-4,5-dihydro-3H-1-thia-3,5,8-triazaacenaphthylene-2-carboxamide], for which the “BTK_I_binding pIC50” value is recorded as 6.91.
